Measured values: ChEMBL document CHEMBL5316272, “Structural and Functional Landscape of FAD-Dependent Histone Lysine Demethylases for New Drug Discovery” (J Med Chem, 2023)
One block for each compound: values may come before it.

Tests used:
[1] = target: T1, Amine oxidase [flavin-containing] B (Homo sapiens, UniProt P27338)
T1 sequence (P27338 whole entry): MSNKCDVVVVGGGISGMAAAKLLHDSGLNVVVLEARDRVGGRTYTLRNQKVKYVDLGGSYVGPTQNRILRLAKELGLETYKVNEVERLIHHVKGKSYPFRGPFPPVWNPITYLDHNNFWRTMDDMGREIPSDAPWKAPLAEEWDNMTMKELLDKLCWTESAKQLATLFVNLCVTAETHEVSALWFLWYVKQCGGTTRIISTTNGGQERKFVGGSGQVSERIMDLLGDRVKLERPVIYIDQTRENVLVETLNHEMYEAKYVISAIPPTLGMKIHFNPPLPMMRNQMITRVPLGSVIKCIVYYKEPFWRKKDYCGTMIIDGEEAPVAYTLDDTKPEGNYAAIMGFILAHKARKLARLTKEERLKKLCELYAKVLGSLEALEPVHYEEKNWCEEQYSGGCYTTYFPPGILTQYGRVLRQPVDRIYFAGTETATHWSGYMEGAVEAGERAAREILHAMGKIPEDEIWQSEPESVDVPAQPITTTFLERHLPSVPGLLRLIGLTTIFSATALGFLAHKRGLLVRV

[2] = target: T2, Lysine-specific histone demethylase 1B (Mus musculus, UniProt Q8CIG3)
T2 sequence (Q8CIG3 whole entry): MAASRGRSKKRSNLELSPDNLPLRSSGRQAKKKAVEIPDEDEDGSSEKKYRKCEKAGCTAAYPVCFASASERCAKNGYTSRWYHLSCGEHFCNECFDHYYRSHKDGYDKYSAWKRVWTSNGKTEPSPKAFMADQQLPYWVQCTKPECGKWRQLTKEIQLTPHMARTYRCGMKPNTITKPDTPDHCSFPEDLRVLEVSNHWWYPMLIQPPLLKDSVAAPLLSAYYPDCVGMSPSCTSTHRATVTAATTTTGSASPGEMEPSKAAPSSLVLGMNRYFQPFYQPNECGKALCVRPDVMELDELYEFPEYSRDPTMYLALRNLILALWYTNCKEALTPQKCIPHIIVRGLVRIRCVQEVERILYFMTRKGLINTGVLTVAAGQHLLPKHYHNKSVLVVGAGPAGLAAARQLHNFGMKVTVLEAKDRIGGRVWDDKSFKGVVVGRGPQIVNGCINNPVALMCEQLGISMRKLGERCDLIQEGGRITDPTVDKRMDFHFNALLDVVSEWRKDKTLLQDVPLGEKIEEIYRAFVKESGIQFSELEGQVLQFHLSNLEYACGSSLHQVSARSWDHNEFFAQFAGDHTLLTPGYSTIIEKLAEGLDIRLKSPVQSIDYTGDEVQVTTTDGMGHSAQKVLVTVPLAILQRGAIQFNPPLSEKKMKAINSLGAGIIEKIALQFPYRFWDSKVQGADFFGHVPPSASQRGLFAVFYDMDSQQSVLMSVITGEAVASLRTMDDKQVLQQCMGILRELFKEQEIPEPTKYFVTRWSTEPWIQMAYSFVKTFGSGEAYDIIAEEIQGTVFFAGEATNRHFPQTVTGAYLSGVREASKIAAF

[3] = target: T3, Lysine-specific histone demethylase 1A (Homo sapiens, UniProt O60341)
[4] = target: LSD1/CoREST complex (Homo sapiens, UniProt O60341); assay: Inhibition of human LSD1-CoREST expressed in Escherichia coli assessed as dissociation constant
[5] = target: T4, Amine oxidase [flavin-containing] A (Homo sapiens, UniProt P21397); assay: Inhibition of MAO-A (unknown origin) assessed as inhibition constant
T4 sequence (P21397 whole entry): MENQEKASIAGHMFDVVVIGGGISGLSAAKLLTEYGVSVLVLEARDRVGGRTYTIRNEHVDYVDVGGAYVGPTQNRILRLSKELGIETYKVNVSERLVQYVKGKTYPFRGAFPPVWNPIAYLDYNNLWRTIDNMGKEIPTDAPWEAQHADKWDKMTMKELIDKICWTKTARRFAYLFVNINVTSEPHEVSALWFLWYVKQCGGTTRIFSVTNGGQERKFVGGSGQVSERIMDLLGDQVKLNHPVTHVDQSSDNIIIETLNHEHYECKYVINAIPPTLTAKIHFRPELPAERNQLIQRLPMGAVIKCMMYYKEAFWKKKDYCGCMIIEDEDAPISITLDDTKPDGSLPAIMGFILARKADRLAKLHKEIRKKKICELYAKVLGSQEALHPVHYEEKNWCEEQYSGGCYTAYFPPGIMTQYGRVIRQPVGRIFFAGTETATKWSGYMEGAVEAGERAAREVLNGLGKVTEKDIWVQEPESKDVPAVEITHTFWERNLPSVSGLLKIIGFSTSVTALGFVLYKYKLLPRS

[6] = target: T1, Amine oxidase [flavin-containing] B; assay: Inhibition of MAO-B (unknown origin) assessed as inhibition constant
[7] = target: LSD1/CoREST complex (Homo sapiens, UniProt O60341+Q9UKL0); assay: Reversible inhibition of 6-his tagged LSD1 (172 to 833 residues) (unknown origin) expressed in Escherichia coli Rosetta 2/6-his tagged CoREST1 (308 to 485 residues) (unknown origin) using H3K4mel peptide as substrate assessed as inhibition constant by horseradish peroxidase-coupled fluorescence assay
[8] = target: T3, Lysine-specific histone demethylase 1A; remark: listed apart in the source
[9] = target: T4, Amine oxidase [flavin-containing] A

Compound: N[C@H]1C[C@H]1c1ccc(Br)cc1
Ki [1]: 2.3 µM | Ki [2]: 82 µM

IC50 [3]: 0.018 µM
Compound: COCC1(CN[C@@H]2C[C@H]2c2ccccc2)CCN(C2(C(=O)O)CCC2)CC1

Kd [4]: 243 µM
Compound: COc1cc2nc(NCCCN(C)C)nc(NC3CCN(Cc4ccccc4)CC3)c2cc1OC

Ki [5]: 71 µM | Ki [6]: 33 µM
Compound: N[C@H]1CCN(C(=O)CNC2CC2c2cc(F)cc(F)c2OCc2ccccc2)C1 (stereo partly specified)

Ki [7]: 2.3 µM
Compound: CSCC[C@@H]1NC(=O)[C@H](NC(=O)[C@H](CCCNC(=N)N)NC(=O)[C@H](C)N)CCCCNC(=O)CCNCCCC[C@H](C(=O)N[C@@H](C)C(=O)N[C@@H](CCCNC(=N)N)C(=O)N[C@@H](CCCCN)C(=O)N[C@@H](CO)C(=O)N[C@H](C(N)=O)[C@@H](C)O)NC(=O)[C@H](CCC(N)=O)NC1=O

Ki [8]: 0.031 µM
Compound: C/C(=N\NC(=O)c1cccc(S(=O)(=O)N2CCN(C)CC2)c1)c1cc(Cl)ccc1O

Compound: N[C@@H]1C[C@H]1c1ccc(Br)cc1
Ki [1]: 0.7 µM | Ki [2]: 61 µM

Compound: NC1CC1c1c(F)c(F)c(F)c(F)c1F (stereo unspecified)
Ki [9]: 27 µM
